Results from PubChem BioAssay (NCI).
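All cell lines were grown in 96-well plates and treated with compound for 48 hours. The concentration for 50% growth inhibition is given as GI50. Definition used: TGI = concentration required for complete inhibition of growth.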

What was measured:
Experiment in all cases: NCI-60 cell line screen, 48 h
786-0 renal = tested on: 786-0 renal
A498 renal = tested on: A498 renal
A549 NSCLC = tested on: A549 NSCLC
ACHN renal = tested on: ACHN renal
BT-549 breast = tested on: BT-549 breast
CAKI-1 renal = tested on: CAKI-1 renal
COLO 205 colon = tested on: COLO 205 colon
DU-145 prostate = tested on: DU-145 prostate
EKVX NSCLC = tested on: EKVX NSCLC
HCC-2998 colon = tested on: HCC-2998 colon
HCT-116 colon = tested on: HCT-116 colon
HCT-15 colon = tested on: HCT-15 colon
HOP-62 NSCLC = tested on: HOP-62 NSCLC
HOP-92 NSCLC = tested on: HOP-92 NSCLC
HS 578T breast = tested on: HS 578T breast
HT29 colon = tested on: HT29 colon
IGROV1 ovarian = tested on: IGROV1 ovarian
K-562 leukemia = tested on: K-562 leukemia
KM12 colon = tested on: KM12 colon
LOX IMVI melanoma = tested on: LOX IMVI melanoma
M14 melanoma = tested on: M14 melanoma
MALME-3M melanoma = tested on: MALME-3M melanoma
MCF7 breast = tested on: MCF7 breast
MDA-MB-231 breast = tested on: MDA-MB-231 breast
MDA-MB-435 = tested on: MDA-MB-435
MOLT-4 leukemia = tested on: MOLT-4 leukemia
NCI-H226 lung = tested on: NCI-H226 lung
NCI-H23 lung = tested on: NCI-H23 lung
NCI-H460 lung = tested on: NCI-H460 lung
NCI-H522 lung = tested on: NCI-H522 lung
NCI/ADR-RES ovarian = tested on: NCI/ADR-RES ovarian
OVCAR-3 ovarian = tested on: OVCAR-3 ovarian
OVCAR-5 ovarian = tested on: OVCAR-5 ovarian
OVCAR-8 ovarian = tested on: OVCAR-8 ovarian
RXF 393 renal = tested on: RXF 393 renal
SF-268 CNS = tested on: SF-268 CNS
SF-295 CNS = tested on: SF-295 CNS
SF-539 CNS = tested on: SF-539 CNS
SK-MEL-2 melanoma = tested on: SK-MEL-2 melanoma
SK-MEL-28 melanoma = tested on: SK-MEL-28 melanoma
SK-OV-3 ovarian = tested on: SK-OV-3 ovarian
SN12C renal = tested on: SN12C renal
SNB-19 CNS = tested on: SNB-19 CNS
SNB-75 CNS = tested on: SNB-75 CNS
SW-620 colon = tested on: SW-620 colon
T-47D breast = tested on: T-47D breast
TK-10 renal = tested on: TK-10 renal
U251 CNS = tested on: U251 CNS
UACC-257 melanoma = tested on: UACC-257 melanoma
UACC-62 melanoma = tested on: UACC-62 melanoma
UO-31 renal = tested on: UO-31 renal

Q: `CCOC(=O)C(Cc1c[nH]c2ccc([N+](=O)[O-])cc12)(NC(C)=O)C(=O)OCC` was tested. Which GI50 (786-0 renal) did it give?
A: 143 µM

Q: And the TGI (786-0 renal)?
A: > 802 µM

Q: And the GI50 (A498 renal)?
A: 8.18 µM

Q: What about the TGI (A498 renal) of the same compound?
A: > 390 µM

Q: What about the GI50 (A549 NSCLC) of the same compound?
A: 67.3 µM

Q: And the TGI (A549 NSCLC)?
A: > 1 mM

Q: And the GI50 (ACHN renal)?
A: 151 µM

Q: And the TGI (ACHN renal)?
A: > 1 mM

Q: And the GI50 (BT-549 breast)?
A: 44.5 µM

Q: And the TGI (BT-549 breast)?
A: 426 µM

Q: And the GI50 (CAKI-1 renal)?
A: 34.2 µM

Q: What about the TGI (CAKI-1 renal) of the same compound?
A: > 1 mM

Q: And the GI50 (COLO 205 colon)?
A: > 1 mM

Q: What about the TGI (COLO 205 colon) of the same compound?
A: > 1 mM

Q: What about the GI50 (DU-145 prostate) of the same compound?
A: > 714 µM

Q: And the TGI (DU-145 prostate)?
A: > 1 mM

Q: And the GI50 (EKVX NSCLC)?
A: > 1 mM

Q: And the TGI (EKVX NSCLC)?
A: > 1 mM

Q: What about the GI50 (HCC-2998 colon) of the same compound?
A: > 1 mM

Q: And the TGI (HCC-2998 colon)?
A: > 1 mM

Q: What about the GI50 (HCT-116 colon) of the same compound?
A: 139 µM

Q: What about the TGI (HCT-116 colon) of the same compound?
A: > 1 mM

Q: What about the GI50 (HCT-15 colon) of the same compound?
A: > 1 mM

Q: What about the TGI (HCT-15 colon) of the same compound?
A: > 1 mM

Q: What about the GI50 (HOP-62 NSCLC) of the same compound?
A: 304 µM

Q: What about the TGI (HOP-62 NSCLC) of the same compound?
A: > 606 µM

Q: What about the TGI (HOP-92 NSCLC) of the same compound?
A: > 423 µM

Q: And the GI50 (HS 578T breast)?
A: 80.8 µM

Q: What about the TGI (HS 578T breast) of the same compound?
A: > 765 µM

Q: What about the GI50 (HT29 colon) of the same compound?
A: > 1 mM

Q: And the TGI (HT29 colon)?
A: > 1 mM

Q: What about the GI50 (IGROV1 ovarian) of the same compound?
A: 68.7 µM

Q: And the TGI (IGROV1 ovarian)?
A: > 833 µM

Q: What about the GI50 (K-562 leukemia) of the same compound?
A: 47.7 µM

Q: And the TGI (K-562 leukemia)?
A: > 1 mM

Q: What about the GI50 (KM12 colon) of the same compound?
A: > 1 mM

Q: And the TGI (KM12 colon)?
A: > 1 mM

Q: And the GI50 (LOX IMVI melanoma)?
A: > 419 µM

Q: And the TGI (LOX IMVI melanoma)?
A: > 1 mM

Q: And the GI50 (M14 melanoma)?
A: > 1 mM

Q: What about the TGI (M14 melanoma) of the same compound?
A: > 1 mM

Q: What about the GI50 (MALME-3M melanoma) of the same compound?
A: 114 µM

Q: And the TGI (MALME-3M melanoma)?
A: > 1 mM

Q: And the GI50 (MCF7 breast)?
A: 81 µM

Q: What about the TGI (MCF7 breast) of the same compound?
A: > 1 mM

Q: What about the GI50 (MDA-MB-231 breast) of the same compound?
A: 140 µM

Q: And the TGI (MDA-MB-231 breast)?
A: > 1 mM

Q: What about the GI50 (MDA-MB-435) of the same compound?
A: > 1 mM

Q: What about the TGI (MDA-MB-435) of the same compound?
A: > 1 mM

Q: And the GI50 (MOLT-4 leukemia)?
A: 35.2 µM

Q: And the TGI (MOLT-4 leukemia)?
A: > 1 mM

Q: What about the GI50 (NCI-H226 lung) of the same compound?
A: > 546 µM

Q: And the TGI (NCI-H226 lung)?
A: > 1 mM

Q: And the GI50 (NCI-H23 lung)?
A: 85 µM

Q: What about the TGI (NCI-H23 lung) of the same compound?
A: > 1 mM

Q: What about the GI50 (NCI-H460 lung) of the same compound?
A: > 306 µM

Q: And the TGI (NCI-H460 lung)?
A: > 1 mM

Q: And the GI50 (NCI-H522 lung)?
A: 79.5 µM

Q: And the TGI (NCI-H522 lung)?
A: 460 µM

Q: What about the GI50 (NCI/ADR-RES ovarian) of the same compound?
A: 53.6 µM

Q: What about the TGI (NCI/ADR-RES ovarian) of the same compound?
A: > 1 mM

Q: What about the GI50 (OVCAR-3 ovarian) of the same compound?
A: 75.3 µM

Q: What about the TGI (OVCAR-3 ovarian) of the same compound?
A: > 1 mM

Q: And the GI50 (OVCAR-5 ovarian)?
A: > 1 mM

Q: And the TGI (OVCAR-5 ovarian)?
A: > 1 mM

Q: What about the GI50 (OVCAR-8 ovarian) of the same compound?
A: 96.7 µM

Q: What about the TGI (OVCAR-8 ovarian) of the same compound?
A: > 870 µM

Q: What about the GI50 (RXF 393 renal) of the same compound?
A: 66.4 µM

Q: And the TGI (RXF 393 renal)?
A: 261 µM

Q: And the GI50 (SF-268 CNS)?
A: 188 µM

Q: What about the TGI (SF-268 CNS) of the same compound?
A: > 1 mM

Q: And the GI50 (SF-295 CNS)?
A: 30.5 µM

Q: And the TGI (SF-295 CNS)?
A: > 1 mM

Q: What about the GI50 (SF-539 CNS) of the same compound?
A: 134 µM

Q: And the TGI (SF-539 CNS)?
A: > 473 µM

Q: What about the GI50 (SK-MEL-2 melanoma) of the same compound?
A: > 1 mM

Q: And the TGI (SK-MEL-2 melanoma)?
A: > 1 mM

Q: And the GI50 (SK-MEL-28 melanoma)?
A: 975 µM

Q: And the TGI (SK-MEL-28 melanoma)?
A: > 1 mM

Q: And the GI50 (SK-OV-3 ovarian)?
A: 184 µM

Q: What about the TGI (SK-OV-3 ovarian) of the same compound?
A: > 907 µM

Q: And the GI50 (SN12C renal)?
A: 502 µM

Q: What about the TGI (SN12C renal) of the same compound?
A: > 1 mM

Q: And the GI50 (SNB-19 CNS)?
A: 138 µM

Q: What about the TGI (SNB-19 CNS) of the same compound?
A: 598 µM

Q: And the GI50 (SNB-75 CNS)?
A: 59.2 µM

Q: And the TGI (SNB-75 CNS)?
A: 215 µM

Q: What about the GI50 (SW-620 colon) of the same compound?
A: > 1 mM

Q: And the TGI (SW-620 colon)?
A: > 1 mM

Q: And the GI50 (T-47D breast)?
A: 50.1 µM

Q: What about the TGI (T-47D breast) of the same compound?
A: > 1 mM

Q: And the GI50 (TK-10 renal)?
A: 186 µM

Q: What about the TGI (TK-10 renal) of the same compound?
A: > 1 mM

Q: What about the GI50 (U251 CNS) of the same compound?
A: 134 µM

Q: And the TGI (U251 CNS)?
A: > 564 µM

Q: What about the GI50 (UACC-257 melanoma) of the same compound?
A: > 1 mM

Q: And the TGI (UACC-257 melanoma)?
A: > 1 mM

Q: And the GI50 (UACC-62 melanoma)?
A: 40.5 µM

Q: And the TGI (UACC-62 melanoma)?
A: > 1 mM

Q: What about the GI50 (UO-31 renal) of the same compound?
A: 80.3 µM

Q: What about the TGI (UO-31 renal) of the same compound?
A: > 1 mM
